Reference: article PMC6624297 (Cell Death & Disease, 2019)

Columns and labels:
SGC7901 cells = experiment: MTT assay SGC7901; format: cell-based; conditions: Homo sapiens, SGC-7901, 24h of treatment, mean ± SD
Experimental: (§1) Details are given in Supplementary Materials and Methods. Using probability unit and weighted regression method to calculate the IC50 value of compounds.
(§2) Total cells in the logarithmic growth phase were collected, digested using 0.25% pancreatic enzymes, and then diluted into single-cell suspensions using phosphate-buffered solution (PBS). These cells were seeded into 96-well plates at 4× 10^3-5× 10^3 cells per well (100 µL per well) and then A549, H460, OVCAR-3, SGC7901, MDA-MB-231, HCT116 and HepG2 were cultured at 37°Cin an incubator containing 5% CO2. After cell complete attachment, 100 µL of different concentrations of compounds (0.625 μM, 1.25 μM, 2.5μM, 5 μM, 10 μM) were added to the cells after the nutrient solution in each well was discarded, while no compound except 0.1% DMSO was added to cells in the control group; at the same time, each concentration was set up to 5 wells. In addition, 5 wells in each 96-well plate only received 100 µL of nutrient solution as a blank control. The plates were taken out after the cells were incubated with compounds for 24 h, and 20 µL of MTT solution (5 mg/mL) (Wuhan Boster Biotechnology Limited Company, Wuhan, China; item No. AR1156) was added into all the wells. After another time of incubation for 4 h at 37 °C, the nutrient solution in each well was discarded slowly, and 150 µL of DMSO was added to each well. The plates were shaken on a shaking table for 20 min. When the crystals were fully dissolved, the blank wells were used to zero the plate reader. The optical density (OD) of each well was detected at 490 nm. The IC50 value was determined as the concentration of the inhibitor that caused 50% inhibition. Using probability unit and weighted regression method to calculate the IC50 value of compounds.

SK-MES-1 cells = experiment: MTT assay SK-MES-1; format: cell-based
[1] = tested on: P53, caspase-3, bcl-2/bax, cleaved caspase-3; experiment: Western blot apoptotic proteins, A549; format: cell-based, human; conditions: A549, 0.5, 1.0, 1.5 μM, 24 h
Experimental: A549 cells, H460 cells and HUVECs were treated with different concentrations of compound L14e for 24 h. Primary antibodies (100 μL/cm^2): P53(10442-1-AP, Proteintech Group),caspase-3 (19677-1-AP, Proteintech Group), bax (50599-2-lg, Proteintech Group), bcl-2 (12789-1-AP, Proteintech Group), cleaved caspase-3 (25546-1-AP, Proteintech Group), β-actin (60008-1-lg, Proteintech Group), EGFR (ab21074, Abcam), AKT (#2920, Cell Signaling Technology), ERK1/2 (#4370, Cell Signaling Technology), VEGFR-2 (#9698, Cell Signaling Technology), p-EGFR (ab40815, Abcam), p-AKT (#4060, Cell Signaling Technology), p-ERK1/2 (#4695, Cell Signaling Technology), p-VEGFR-2 (#3770, Cell Signaling Technology), and GAPDH (ab181603, Abcam). The cellular levels of proteins were determined by standard Western blotting. Details were given in Supplementary Materials and Methods.
A549 cells, H460 cells and HUVECs were treated with different concentrations of compound L14e for 24 h, and collected to establish their respective treatment groups. […]
Extracted proteins were separated from each other using polyacrylamide electrophoresis on a 10 % gel (Beyotime Biotechnology Company, Shanghai, China) and transferred to a polyvinylidene fluoride (PVDF) membrane. […] Gray values of protein bands were quantitatively analyzed, with the gray value of β-actin(GAPDH) band as the reference.

MDA-MB-231 cells = experiment: MTT assay MDA-MB-231; format: cell-based; conditions: Homo sapiens, 24h of treatment, mean ± SD
Experimental: as §1, §2

A549 tumor xenograft = A549 tumor xenograft model; format: in vivo, BABL/c female nude mice; conditions: 80 mg/kg, 3 weeks
Experimental: Five-week-old immunodeficient BABL/c female nude mice, weighing 18 to 20 g, were purchased and maintained under specific pathogen-free conditions. They were implanted subcutaneously with 1 × 10^7 A549 cells. Tumor sizes were assessed using the two largest perpendicular axes. Tumor volume was calculated using the formula V = (a × b^2)/2, where a is length and b is width. The tumor volume was measured every 3 days. When tumor volumes reached 50 mm^3, the mice were randomized to drug-treated or vehicle groups (five mice per group). Tumor growth was monitored every 3 days using a Vernier caliper. […] All animal studies were conducted with the approval of the Laboratory Animal Welfare and Ethical Committee of China Medical University.
After incubation with hydrogen peroxide, the slides were washed with PBS and then incubated with 0.4% Triton X-100. The sections were incubated with blocking solution (Dako Protein Block, Dako, Glostrup, Denmark) for 30 min at room temperature after washing with PBS. The sections were further incubated with primary antibodies (Ki67 and cleaved caspase 3 [all from Cell Signaling Technology], diluted at 1:200) overnight at 4 °C, washed with PBS several times, incubated with the corresponding biotinylated secondary antibodies (diluted at 1:500), and then washed with PBS multiple times. After adding avidin-biotin complexes (Vector Laboratories), the sections were visualized using diaminobenzidine (DAB) detection reagent (Enzo Life Sciences, Farmingdale, NY, USA) and mounted with a mounting solution (Vector Laboratories, Burlingame, CA, USA).

IOSE80 cell line = experiment: Selectivity index against IOSE80; format: cell-based; conditions: SI = CC50/IC50
LO2 cell line = experiment: Selectivity index against LO2; format: cell-based; conditions: SI = CC50/IC50

In the case of `O=C(Nc1cccc(Cl)c1)Nc1ccccc1NS(=O)(=O)c1c[nH]c(=O)[nH]c1=O` [Compound L14e, N'-(3-chlorophenyl)-2-(2,4-dihydroxypyrimidine-5-sulfonamido)phenyl urea], the IC50 (SGC7901 cells) is reported as 1.95 ± 0.15 µM, the “inhibition of SK-MES-1 cells” value (SK-MES-1 cells) is reported as “did not inhibit” and the “expression of P53, bax, bcl-2, cleaved caspase-3” value [1] is reported as “over expression of P53, up-regulation of bax and down-regulation of bcl-2”. The IC50 (MDA-MB-231 cells) was 2.6 ± 0.08 µM, the “changes in body weight in xenograft mice” value (A549 tumor xenograft) was “negligible changes in body weight” and the “expression of Ki67 in tumors (IHC)” value (A549 tumor xenograft) was “significantly decreased”. The “expression of cleaved-caspase-3 in tumors (IHC)” value (A549 tumor xenograft) was “significantly increased”, the “growth of xenograft tumors” value (A549 tumor xenograft; intraperitoneal injection) was “significantly suppressed the growth of xenograft tumors” and the “tumor growth inhibition (TGI)” value (A549 tumor xenograft; intraperitoneal injection) was 84.86. For the same compound, the “SI (Selectivity index) IOSE80” value (IOSE80 cell line) was 8.79 and the “SI (Selectivity index) LO2” value (LO2 cell line) was 12.58.
